# Data from the supplement of paper PMC11997997.
# Tests used:
# [1] = system: Mycobacterium tuberculosis CDC1551 (intracellular, in murine BMDM); test: area under intracellular growth-inhibition dose-response curve (AUC (% inhibition x dose, relative)); higher = more potent; details: duration: 6 days; dose range: 0.13-80 uM, 8 points
# Method in brief: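 In 384-well opaque plates, primary murine bone marrow-derived macrophages were infected with luciferase-expressing M. tuberculosis CDC1551 (multiplicity of infection 1, 1 h) 24 h after seeding, then treated for 6 days across final concentrations of 80–0.13 μM. Growth was measured by Bright-Glo luciferin assay, normalised to a reference drug control and the lowest-concentration wells. The reported value is the area under the growth-inhibition dose–response curve from GraphPad Prism.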
# [2] = system: murine bone marrow-derived macrophages; test: area under cytotoxicity dose-response curve (AUC (% cytotoxicity x dose, relative)); higher = more cytotoxic; details: duration: 6 days; dose range: 0.13-80 uM, 8 points
# Method in brief: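 Cytotoxicity is expressed as the area under the dose–response curve from GraphPad Prism version 10. To obtain it, primary murine bone marrow-derived macrophages were incubated for 6 days at 37 °C in 5% CO2 across final concentrations of 80–0.13 μM. Viability came from CellTiter-Glo luminescence, and percent cytotoxicity was normalised to vehicle and positive control wells.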
smiles,measurement,setting,value
O=C(/C=C/c1cccs1)N1CCN(Cc2ccc3c(c2)OCO3)CC1,area under intracellular growth-inhibition dose-response curve,[1],271
same,area under cytotoxicity dose-response curve,[2],< 0
O=C(CCCOc1ccc(Br)cc1)NNC(=O)c1ccncc1,area under intracellular growth-inhibition dose-response curve,[1],256
same,area under cytotoxicity dose-response curve,[2],24.1
O=C(N/N=C/c1ccc([N+](=O)[O-])o1)C(O)c1ccccc1 (configuration not stated),area under intracellular growth-inhibition dose-response curve,[1],123
same,area under cytotoxicity dose-response curve,[2],72.7
C=C[C@]1(C)C[C@@H](OC(=O)CSCCN(CC)CC)[C@]2(C)C(C)CC[C@]3(CCC(=O)[C@H]32)[C@@H](C)[C@@H]1O.O=C(O)/C=C/C(=O)O (some centres not stated),area under intracellular growth-inhibition dose-response curve,[1],199
same,area under cytotoxicity dose-response curve,[2],89.1
Cc1ccc2nc(C)cc(S)c2c1,area under intracellular growth-inhibition dose-response curve,[1],108
same,area under cytotoxicity dose-response curve,[2],< 0
COc1ccc(CN(C)C(=O)c2cccc(S(=O)(=O)N3CCCc4ccccc43)c2)c(OC)c1OC,area under intracellular growth-inhibition dose-response curve,[1],144
same,area under cytotoxicity dose-response curve,[2],16.4
COc1ccccc1C(CNC(=O)CN1C(=O)NC(C)(c2ccc3ccccc3c2)C1=O)N1CCCC1 (configuration not stated),area under intracellular growth-inhibition dose-response curve,[1],93.4
same,area under cytotoxicity dose-response curve,[2],44.4
O=C(NNC(=O)C1CCCC1)c1cc([N+](=O)[O-])cc([N+](=O)[O-])c1,area under intracellular growth-inhibition dose-response curve,[1],109
same,area under cytotoxicity dose-response curve,[2],12.3
CCCOc1ccc(C(=O)CCC(=O)NNC(=O)c2ccncc2)cc1,area under intracellular growth-inhibition dose-response curve,[1],269
same,area under cytotoxicity dose-response curve,[2],< 0
O=C(COc1ccccc1)NC1C(=O)N2C(C(=O)O)=C(Cl)CSC12 (configuration not stated),area under intracellular growth-inhibition dose-response curve,[1],144
same,area under cytotoxicity dose-response curve,[2],< 0
O=C1CN(C(=O)COC(=O)c2c(F)cccc2Cl)c2ccccc2N1,area under intracellular growth-inhibition dose-response curve,[1],148
same,area under cytotoxicity dose-response curve,[2],< 0
CC(NC(=O)c1cc([N+](=O)[O-])cc([N+](=O)[O-])c1)C1CC2CCC1C2 (configuration not stated),area under intracellular growth-inhibition dose-response curve,[1],257
same,area under cytotoxicity dose-response curve,[2],64.9
O=C1/C(=C/c2cccs2)CCC1C1CCCC1 (configuration not stated),area under intracellular growth-inhibition dose-response curve,[1],132
same,area under cytotoxicity dose-response curve,[2],< 0
O=[N+]([O-])c1ccc(/C=N/Nc2nc(N3CCCCC3)nc(N3CCCCC3)n2)o1,area under intracellular growth-inhibition dose-response curve,[1],226
same,area under cytotoxicity dose-response curve,[2],< 0
Brc1ccc(-[n+]2c(-c3ccccc3)cc(-c3ccccc3)cc2-c2ccccc2)cc1.[O-][Cl+3]([O-])([O-])[O-],area under intracellular growth-inhibition dose-response curve,[1],70.1
same,area under cytotoxicity dose-response curve,[2],14.7
COc1ccc(C/C(C)=N/NC(=O)c2ccncc2)cc1,area under intracellular growth-inhibition dose-response curve,[1],261
same,area under cytotoxicity dose-response curve,[2],40.9
COc1ccc(NC(=O)C/C(C)=N/NC(=O)c2ccncc2)c([N+](=O)[O-])c1,area under intracellular growth-inhibition dose-response curve,[1],169
same,area under cytotoxicity dose-response curve,[2],129
CCOC(=O)c1cc(-c2csc(-c3ccc(C(C)(C)C)cc3)n2)on1,area under intracellular growth-inhibition dose-response curve,[1],231
same,area under cytotoxicity dose-response curve,[2],79.1
Cc1cc(OCC(=O)N2CCCC2)ccc1Cl,area under intracellular growth-inhibition dose-response curve,[1],220
same,area under cytotoxicity dose-response curve,[2],55.1
COc1cc(/C=N/NC(=O)c2ccncc2)ccc1OCC(=O)Nc1ccccc1,area under intracellular growth-inhibition dose-response curve,[1],232
same,area under cytotoxicity dose-response curve,[2],< 0
O=C(C=Cc1cccc(Cl)c1)c1ccccc1,area under intracellular growth-inhibition dose-response curve,[1],252
same,area under cytotoxicity dose-response curve,[2],6.7
CCOC(=O)Nc1ccc(C(=O)Oc2ccccc2)c(O)c1,area under intracellular growth-inhibition dose-response curve,[1],31.9
same,area under cytotoxicity dose-response curve,[2],63.8
Cn1ccc(=Nc2ccc(NC(=O)c3ccc(/N=c4\ccn(C)c5ccc([N+](=O)[O-])cc45)cc3)cc2)cc1,area under intracellular growth-inhibition dose-response curve,[1],260
same,area under cytotoxicity dose-response curve,[2],108
C/C(=N\NC(=O)c1ccncc1)C12CC3CC(CC(C3)C1)C2,area under intracellular growth-inhibition dose-response curve,[1],239
same,area under cytotoxicity dose-response curve,[2],97.9
NC(=O)C[C@H](NC(=O)c1ccc(Cl)cc1)C(=O)OCc1ccccc1,area under intracellular growth-inhibition dose-response curve,[1],16.5
same,area under cytotoxicity dose-response curve,[2],< 0
O=C(COC(=O)c1ccccc1O)NC1CCCc2ccccc21 (configuration not stated),area under intracellular growth-inhibition dose-response curve,[1],126
same,area under cytotoxicity dose-response curve,[2],< 0
CCc1ccc(C(=O)NCc2cccs2)s1,area under intracellular growth-inhibition dose-response curve,[1],220
same,area under cytotoxicity dose-response curve,[2],17.6
O=C(NCc1ccc(Cl)cc1)c1ccc(Br)o1,area under intracellular growth-inhibition dose-response curve,[1],204
same,area under cytotoxicity dose-response curve,[2],52.2
Cc1ccc(C2=NN(C(=O)CCl)C(c3ccco3)C2)o1 (configuration not stated),area under intracellular growth-inhibition dose-response curve,[1],88.6
same,area under cytotoxicity dose-response curve,[2],73.1
Cc1nnc(SCC2=C(C(=O)O)N3C(=O)C(NC(=O)Cn4nc(C)c(Cl)c4C)C3SC2)s1 (configuration not stated),area under intracellular growth-inhibition dose-response curve,[1],112
same,area under cytotoxicity dose-response curve,[2],82.6
NC(=S)N/N=C/c1ccc(-c2cc(Cl)cc(Cl)c2)o1,area under intracellular growth-inhibition dose-response curve,[1],230
same,area under cytotoxicity dose-response curve,[2],41.6
